Measurements published in a melting point compilation (Tetko et al.).

Compound | melting point [°C]
CCOC(=O)c1c[nH]nc1C(F)(F)F | 145 to 148
O=[N+]([O-])c1ccc(-c2ccccc2)cc1 | 114
CCc1occc(=O)c1O | 162
Cc1ccc(S(=O)(=O)OC2CCC3C4CCC5CC(=O)CCC5(C)C4CCC23C)cc1 (configuration not stated) | 179 to 180
CN1CCC23c4c5ccc(O)c4OC2C(O)CCC3C1C5 (configuration not stated) | 157
COC(=O)c1ccc(Br)cn1 | 101
C=CCc1ccc(OC)c(OC)c1 | 70
O=C(O)C1(C(=O)Nc2ccc(Cl)cc2Cl)CC1 | 195
Nc1ccc(S(=O)(=O)Nc2ncccn2)cc1 | 254
c1ccc2cc(Nc3ccc4ccccc4c3)ccc2c1 | 172
Cc1cc(Br)c(O)c(Br)c1 | 50
Brc1ccc(Oc2c(Br)cc(Br)cc2Br)c(Br)c1 | 97 to 98
CC1CCc2cc3c(cc2N1)CCC(C)N3 (configuration not stated) | 125 to 134
OCC1NC(CO)C(O)C1O (configuration not stated) | 102
Oc1ccc2c(c1)C13CCCCC1C(C2)NCC3 (configuration not stated) | 271
O=C1c2ccccc2C(=O)c2c1cc1ccccc1c2O | 320 to 322
COc1ccc(C(N)CCO)cc1 (configuration not stated) | 82 to 86
O=C(O)Cc1c(Cl)cccc1C(F)(F)F | 151
Cc1cc(C)c(O)cc1O | 126
COc1ccc2c(CCN)c[nH]c2c1 | 143 to 146
COC(=O)c1csc2c(C(F)(F)F)cc(Cl)nc12 | 110 to 111
CN(C)c1cccc(N(C)C)c1C#N | 71 to 73

Compound | melting point [°C]
OCCCCCCCCCCCl | 12.5
O=C(O)c1cc([N+](=O)[O-])cc([N+](=O)[O-])c1Cl | 199
Cc1cc(C)n2nc(N)c(/N=N/c3cccc([N+](=O)[O-])c3)c2n1 | 263
CC(=O)CCc1ccc(CCC(C)NC(=O)c2ccccc2)cc1 (configuration not stated) | 122
CC(COc1ccccc1)NC(C)C(O)c1ccc(O)cc1 (configuration not stated) | 102
CN1C(CCl)Nc2cc(Cl)c(S(N)(=O)=O)cc2S1(=O)=O (configuration not stated) | 225
CC(CC(=O)OOC(C)(C)C)CC(C)(C)C (configuration not stated) | -30
COC(=O)C(c1ccccc1)c1ccccc1 | 60
Cn1cc(I)cn1 | 61 to 67
COC(=O)c1ccc([N+](=O)[O-])cc1Cl | 77 to 78
N=C(N)NCCCC(NC(=O)c1ccccc1)C(=O)O (configuration not stated) | 285
CCCCC/C=C\Br | -98
O=C(O)COc1ccc(OC(F)(F)F)cc1 | 84 to 86
COc1ccc(C(=O)c2cccc(C)c2)cc1OC | 93
BrCC(CBr)(CBr)CBr | 163
CC1=CC(=O)OC2(C1)CC1CCC2CN1C (configuration not stated) | 54.5
C1CCC(OC2CCCCC2)CC1 | -36
c1cc2c3c(c4ccc5ccccc5c4cc3c1)CC2 | 174
C/C(=N/NC(N)=O)C(=O)Nc1ccccc1 | 236 to 238
CCOC(=O)Oc1c(OC)cc(C(=O)O)cc1OC | 180 to 185
CSc1nc(N)nc(-c2cccs2)n1 | 176 to 177
C=Cc1ccccc1CC | -75.5

Compound | melting point [°C]
CCOC(=O)CNc1cc(NCC(=O)OCC)c(N)cc1N | > 360
NS(=O)(=O)c1ccccc1Cl | 190
O=C(Nc1ccc([N+](=O)[O-])cc1[N+](=O)[O-])C(C(F)(F)F)C(F)(F)F | 120 to 122
OCc1csc(-c2ccccc2)n1 | 65 to 69
O=C(O)c1cccc2c1OCCCO2 | 68 to 70
CC(=O)Nc1ccccc1C(=O)CCl | 112 to 113
Cc1ccc(C)c2ncccc12 | 4.5
COc1cc2c(cc1C)C(C(=O)O)C2 (configuration not stated) | 138
Ic1ccc(Cn2cccn2)cc1 | 80 to 81
CC(C)(C)OC(=O)N1CCN(Cc2cccc(C(=O)O)c2)CC1 | 173 to 175
c1ccc(C/C(=N\Nc2ccccc2)c2cccc3ccccc23)cc1 | 101 to 102
Nc1[nH]ncc1-c1ccc(F)cc1 | 174 to 175
Cc1ccc(C)c2ccccc12 | 7.6
COc1ncc(F)cc1F | 38
O=C(Nc1ccccc1[N+](=O)[O-])C(F)(F)C(F)(F)C(F)(F)C(F)(F)C(F)(F)C(F)(F)C(F)(F)C(F)(F)F | 94
Cn1nc2ccccc2c1C=O | 75 to 77
CC(=O)c1sccc1N | 86 to 88
Cc1cc2cc3cc(C)[nH]c3cc2[nH]1 | > 170
NC(=NO)c1cc(C(F)(F)F)cc(C(F)(F)F)c1 | 131 to 133
N#C/C(=N\Nc1c(Br)cc(Br)cc1Br)c1nc2ccccc2[nH]1 | 270
Clc1nc(Cl)c(Cl)c(Cl)n1 | 69
Cc1ccc(C(=O)NCC(=O)O)cc1 | 162 to 166

Compound | melting point [°C]
BrC(Br)=Cc1ccccc1 | 75
O=[N+]([O-])c1cccc2cn[nH]c12 | 187
COc1cc2c(cc1OC)Cc1cc(OC)c(OC)cc1Cc1cc(OC)c(OC)cc1C2 | 222 to 228
FC1CCCCC1 | 13
OC1NN(c2ccccc2)C(O)C1=Cc1ccc2c(c1)OCO2 (configuration not stated) | 290
O=C1C=C2CC3(O)COc4c(ccc(O)c4O)C3=C2C=C1O (configuration not stated) | 180
COc1c(OC)c(OC(C)=O)c2ccccc2c1OC(C)=O | 138
CCOC(=O)C(C)Oc1ccc(Oc2cnc3cc(Cl)ccc3n2)cc1 (configuration not stated) | 92
O=C1C2=C(O)CCCC2Cc2ccccc21 (configuration not stated) | 79
C[Si](C)(C)O[Si](C)(C)O[Si](C)(C)O[Si](C)(C)C | -68
CC(=O)Oc1ccc2ccccc2c1 | 69
COc1cc(OC)nc(NC(=O)NS(=O)(=O)N(C)S(C)(=O)=O)n1 | 179
O=C(OCC1CC1)c1cnc(Cl)nc1C(F)(F)F | 108 to 110
CC(=O)Nc1ccc(C=Cc2ccc(NC(C)=O)cc2)cc1 | 322
NNC(=O)c1cncc(Br)c1 | 199 to 202
O=[N+]([O-])c1cc(N(CCO)CCO)ccc1NCCO | 95.5
C1CCCCCCCCCCCCCCC1 | 61
O=C(O)c1snnc1-c1ccccc1 | 144 to 145
N#CC(C#N)=Cc1sccc1C=O | 126 to 130
O=C(O)COc1ccc(Cl)c(Cl)c1 | 139
CCCCCCCCSCCO | 0
CC1=C(C(=O)OC(C)(C)C)C(c2ccco2)NC(=O)N1 (configuration not stated) | 208

Compound | melting point [°C]
CN(C)c1nc(=O)n(C2CCCCC2)c(=O)n1C | 116
C=CC/C=C/C | -139
COc1cc(NS(=O)(=O)c2ccc(N)cc2)nc(C)n1 | 146
O=S(=O)(c1ccccc1)N(F)S(=O)(=O)c1ccccc1 | 110 to 115
O=C1CCC(=O)N1CCO | 60
CCOc1c(Br)cc(Br)cc1C=O | 87 to 87.5
CCOC1OC(C(N)=O)=CC(C)C1Br (configuration not stated) | 131
Nc1ccc(Cl)c(C(F)(F)F)c1 | 37
CC(=O)Oc1ccccc1C(=O)O | 142
CCOC(=O)c1c(SC)nn(-c2ccc([N+](=O)[O-])cc2)c1N | 181
CC(=O)C(C)(CCC(=O)O)CCC(=O)O | 123
COc1ccc(S(=O)(=O)Cl)cc1 | 40 to 42
CCOC(=O)c1sc(SCc2ccccc2)c2c1CC(C)(C)CC2=O | 119 to 122
C=C1C2CCC3(O)C4(C)CCCC(C)(C(=O)OC5OC(CO)C(O)C(O)C5O)C4CCC3(C2)C1O (configuration not stated) | 218 to 220
O=C(Nc1ccccn1)c1ccccc1Cl | 137 to 139
NC(=O)c1c(F)ccc(F)c1F | 117
CCCCC(=O)CCCC | -3.8
CCCCCC(O)CC(=O)CCc1ccc(OC)c(O)c1 (configuration not stated) | 31
CC1=NC(=Cc2cccc3ccccc23)C(=O)O1 | 244
Cc1cc(C)c([N+](=O)[O-])c(C)c1Br | 64 to 66
OC(c1ccccc1)c1ccc(Br)cc1 (configuration not stated) | 61 to 63
NC(=S)c1ccc(F)cc1 | 150

Compound | melting point [°C]
O=[N+]([O-])c1cc(CCBr)c([N+](=O)[O-])cc1CCBr | 123
C1CCCCCCCCC1 | 10
CCN(CC)c1c([N+](=O)[O-])cc(C(F)(F)F)c(N)c1[N+](=O)[O-] | 98.5
OCc1cccc(OCc2ccccc2)c1 | 49
Oc1c(Br)cc(F)cc1Br | 55
Nc1nc(O)cc(O)n1 | 300
O=c1cc(-c2ccccc2)cc(-c2ccccc2)o1 | 137
CC1=C(c2ccccc2)c2ccccc2/C1=N/NC(N)=O | 200 to 201
Nc1ccc(F)c(F)c1 | 21
Cc1ccccc1NC(N)=S | 162
O=C(/C(=N/Nc1ccc(Br)cc1)S(=O)(=O)c1ccccc1)c1cccs1 | 158
CCOC(O)=C1C=NC2=C(CNN2C)C1=O | 139
O=C(Nc1ccc([N+](=O)[O-])cc1Br)C1(F)C(F)(F)C(F)(F)C(F)(F)C(F)(F)C1(F)F | 102
Cc1cccc(C)c1C#N | 90
Clc1ccc2c(Cl)ccnc2c1 | 93
CC1CC(O)CC(C)(C)C1 (configuration not stated) | 55.8
Cc1c(-c2ccccc2)[nH]c2ccccc12 | 91.5
CC(C)(C)c1ccc(CSc2cnn(C(C)(C)C)c(=O)c2Cl)cc1 | 112
CCOC(=O)c1cc(-c2ccc(Cl)cc2)oc1C=O | 188
C=CCC1(C(C)C)C(=O)NC(=O)N(C)C1=O (configuration not stated) | 56.5
O=[N+]([O-])c1ccc2c(c1)S(=O)(=O)CC2SCCO (configuration not stated) | 127 to 129
CSc1ncccc1C(=O)Cl | 94
